Assay type in all cases: cell-based
In test [1] the test system is Pseudomonas aeruginosa (ATCC#15442), Pseudomonas aeruginosa (ATCC#10145), Enterobacter gergoviae (ATCC#33028), Escherichia coli (ATCC#11229), Pseudomonas …. As to the kind of experiment: Preservative efficacy (repeated bacterial challenge) of dimethoxane/MIT in commercial liquid laundry detergent (pH 8.0), 96-deep well block. The following applies: day 20. The protocol: (§1) In the following examples, tests are conducted in a 96-deep well block format using a total sample volume of 600 μl for all evaluations. In these samples, no more than 10% of the total volume consists of the biocide and organism solution and all non-matrix additions are normalized for all samples. Each experimental 96-well block contains biocide-treated samples and control samples which lack biocide.
(§2) Twenty-four hour tryptic soy broth cultures are combined in equal parts for formulation inoculation at a final concentration of 5×10^6 CFU/ml. Organisms are added to each sample of the 96-well block and mixed until homogenous. Additionally, bacterial challenges of the industrial or household product occur on days 2, 7, and 14 of the 28-day test period.
(§3) Sample aliquots are removed, at predetermined time points, for the enumeration of surviving microorganisms. Numerical values in the data tables listed below represent the log10 viable microorganisms recovered from individual samples at specific time points and biocide concentrations post microorganism addition. Biocide concentrations resulting in a≧4 log10 kill of microorganisms, as compared to the preservative-free control, were deemed a significant reduction of viable organisms and were subsequently used for calculating synergy index values.
(§4) The reported synergy indexes are measured and calculated using the formula described below. In this approach, a synergy index of 1 indicates additivity. If the index is less than 1, synergy has occurred, while a synergy index greater than 1 indicates antagonism. Synergy index=CA/Ca+CB/Cb Ca=minimal concentration of antimicrobial A, alone, producing a 4 log10 microbial kill Cb=minimal concentration of antimicrobial B, alone, producing a 4 log10 microbial kill
(§5) CA and CB=the concentrations of antimicrobials A and B, in combination, producing a 4 log10 microbial kill.
The antimicrobial profiles of 2,6-dimethyl-m-dioxan-4-ol acetate (dimethoxane), 2-methyl-3-isothiazolinone (MIT), and combinations of dimethoxane/MIT are evaluated in a commercial liquid laundry detergent formulation (pH 8.0). The detergent formulation is determined to be free of microbial contamination prior to initiation of preservative efficacy evaluations.
Organisms for this example: Pseudomonas aeruginosa (ATCC#15442), Pseudomonas aeruginosa (ATCC#10145), Enterobacter gergoviae (ATCC#33028), Escherichia coli (ATCC#11229), Pseudomonas putida (ATCC#49128), Staphylococcus aureus (ATCC#6538).

Test [2] concerns Pseudomonas aeruginosa (ATCC#15442), Pseudomonas aeruginosa (ATCC#10145), Enterobacter aerogenes (ATCC#13048), Escherichia coli (ATCC#11229), Klebsiella …. The test is described as follows: Preservative efficacy (repeated bacterial challenge) of dimethoxane/BIT in commercial liquid laundry detergent (pH 8.0), 96-deep well block. The protocol: as §1, §2, §3, §4, §5
The antimicrobial profiles dimethoxane, 1,2-benzisothiazol-3-one (BIT), and combinations of dimethoxane/BIT are evaluated in a commercial liquid laundry detergent formulation (pH 8.0).
(§6) Organisms for this example: Pseudomonas aeruginosa (ATCC#15442), Pseudomonas aeruginosa (ATCC#10145), Enterobacter aerogenes (ATCC#13048), Escherichia coli (ATCC#11229), Klebsiella pneumoniae (ATCC#8308), Staphylococcus aureus (ATCC#6538), Salmonella choleraesuis (ATCC#10708).

The test system is the same in test [3]. As to the kind of experiment: Preservative efficacy (repeated bacterial challenge) of dimethoxane/BIT in commercial water-based latex paint (pH 7.4), 96-deep well block. The protocol: as §1, §2, §3, §4, §5
The antimicrobial profiles of dimethoxane, BIT, and combinations of dimethoxane/BIT are evaluated in a commercial (interior eggshell) water-based latex paint formulation (pH 7.4). The paint formulation is determined to be free of microbial contamination prior to initiation of preservative efficacy evaluations.
as §6

Test [4] relates to wild strain of green algae isolated from contaminated PVA latex. The test is described as follows: Challenge testing of PVA latex against wild strain of green algae. The conditions noted are these: Dimethoxane 2000 ppm alone (CMIT/MIT 0 ppm), three weeks. The protocol: Procedure. In this example, a viscous PVA (poly vinyl acetate) latex diluted with water at 5 to 1 ratio is used for algal efficacy testing. Each sample is mixed well by hand and vortex for 2 minutes. 5mL portions of each sample are then placed in a six-well plate and inoculated with 500 μL of 1×10^6 cfu/mL wild strain of green algae isolated from contaminated PVA latex.
The plates are incubated at room temp (25° C.-26° C.) under cyclic exposure to light (OTT-Lite model #OTL4012P, 40 Watt, 26 KLumen) and dark phases, for a period of three weeks.

For test [5], the system named is Pseudomonas aeruginosa (ATCC#15442), Pseudomonas aeruginosa (ATCC#10145), Enterobacter aerogenes (ATCC#13048), Escherichia coli (ATCC#11229), Klebsiella …. The test is described as follows: Preservative efficacy (repeated bacterial challenge) of dimethoxane/CMIT/MIT in commercial water-based latex paint (pH 7.4), 96-deep well block. The protocol: as §1, §2, §3, §4, §5
The antimicrobial profiles of 2,6-dimethyl-m-dioxan-4-ol acetate (dimethoxane), 5-chloro-2-methyl-4-isothiazolin-3-one/2-methyl-4-isothiazolin-3-one (CMIT/MIT) and combinations of dimethoxane/CMIT/MIT are evaluated in a commercial (interior eggshell) water-based latex paint formulation (pH 7.4). The paint formulation is determined to be free of microbial contamination prior to initiation of preservative efficacy evaluations.
as §6

Where [6] appears, read: day 20, ppm active, following four bacterial challenges.

The results in this text go back to patent publication US9526249B2, “Biocidal composition of 2,6-dimethyl-m-dioxane-4-ol acetate and methods of use” (priority 2008, dated 2016).

Take `Cn1ccc(=O)s1` [MIT, 2-Methyl-3-isothiazolinone]: the “log10 viable microorganisms (score)” value in test [1] (MIT alone 3 ppm), in test [1] (MIT alone 4 ppm), in test [1] (MIT alone 7 ppm), in test [1] (MIT alone 10 ppm), in test [1] (MIT alone 15 ppm) and in test [1] (MIT alone 22 ppm) was 8.0 log10 in each case. Further, the “log10 viable microorganisms (score)” value in test [1] (MIT alone 33 ppm) is 8.0 log10; in test [1] (MIT alone 50 ppm) it was 3.0 log10. Besides, the “MIT Alone (minimal concentration producing a 4 log10 microbial kill)” value in test [1] is recorded as over 50 ppm.

On to `O=c1[nH]sc2ccccc12` [BIT, 1,2-benzisothiazol-3-one], for which the “log10 viable microorganisms (score)” value in test [2] (BIT alone 18 ppm, day 20) is recorded as 6.0 log10; in test [2] (BIT alone 26 ppm, day 20) it was 7.0 log10; in test [2] (BIT alone 40 ppm, day 20), 3.0 log10; in test [2] (BIT alone 59 ppm, day 20), 0.0 log10; in test [2] (BIT alone 89 ppm, day 20), 0.0 log10; in test [2] (BIT alone 133 ppm, day 20) it was 0.0 log10. The “log10 viable microorganisms (score)” value in test [2] (BIT alone 200 ppm, day 20) worked out at 1.0 log10; in test [2] (BIT alone 300 ppm, day 20) it was 1.0 log10; in test [3] (BIT alone 29 ppm, day 15), 8 log10; in test [3] (BIT alone 44 ppm, day 15) it was 7 log10; in test [3] (BIT alone 66 ppm, day 15) it was 6 log10; in test [3] (BIT alone 99 ppm, day 15) it was 7 log10. In addition, the “log10 viable microorganisms (score)” value in test [3] (BIT alone 148 ppm, day 15) turned out to be 7 log10; in test [3] (BIT alone 222 ppm, day 15) it was 8 log10; in test [3] (BIT alone 333 ppm, day 15) it was 8 log10; in test [3] (BIT alone 500 ppm, day 15), 5 log10. In test [2] (setting [6]), the “BIT alone (minimal concentration producing a 4 log10 microbial kill)” value worked out at 59 ppm.

Consider `CC(=O)OC1CC(C)OC(C)O1` (stereo not shown) [DMX, 2,6-dimethyl-m-dioxane-4-ol acetate], for which the log10 viable microorganisms was 8.0 log10 in test [1] (DMX alone 77 ppm); 8.0 log10 in test [1] (DMX alone 115 ppm); 8.0 log10 in test [1] (DMX alone 172 ppm); 5.0 log10 in test [1] (DMX alone 257 ppm); 4.0 log10 in test [1] (DMX alone 386 ppm); 3.0 log10 in test [1] (DMX alone 580 ppm). The log10 viable microorganisms in test [1] (DMX alone 870 ppm) is listed as 1.0 log10; in test [1] (DMX alone 1305 ppm), 0.0 log10; in test [2] (480 h, 1160 ppm) it was 0.0 log10; in test [2] (DMX alone 102 ppm a.i., day 20), 6.0 log10; in test [2] (DMX alone 153 ppm a.i., day 20) it was 6.0 log10; in test [2] (DMX alone 229 ppm a.i., day 20), 6.0 log10. Further, the log10 viable microorganisms in test [2] (DMX alone 344 ppm a.i., day 20) is on record as 6.0 log10; in test [2] (DMX alone 516 ppm a.i., day 20), 6.0 log10; in test [2] (DMX alone 773 ppm a.i., day 20), 4.0 log10; in test [2] (DMX alone 1740 ppm a.i., day 20), 0.0 log10; in test [5] (480 h, 1740 ppm), 2 log10; in test [5] (DMX alone 102 ppm a.i., day 20), 8 log10. Besides, the log10 viable microorganisms in test [5] (DMX alone 153 ppm a.i., day 20) is 8 log10; in test [5] (DMX alone 229 ppm a.i., day 20), 7 log10; in test [5] (DMX alone 344 ppm a.i., day 20), 7 log10; in test [5] (DMX alone 516 ppm a.i., day 20), 8 log10; in test [5] (DMX alone 773 ppm a.i., day 20) it was 8 log10; in test [5] (DMX alone 1160 ppm a.i., day 20), 6 log10. Moreover, the log10 viable microorganisms is 3 log10 in test [3] (360 h, 1160 ppm); 7 log10 in test [3] (DMX alone 102 ppm a.i., day 15); 8 log10 in test [3] (DMX alone 153 ppm a.i., day 15); 7 log10 in test [3] (DMX alone 229 ppm a.i., day 15); 7 log10 in test [3] (DMX alone 344 ppm a.i., day 15); 8 log10 in test [3] (DMX alone 516 ppm a.i., day 15). The log10 viable microorganisms in test [3] (DMX alone 773 ppm a.i., day 15) is 7 log10; in test [3] (DMX alone 1740 ppm a.i., day 15) it was 0 log10. The “DMX alone (minimal concentration producing a 4 log10 microbial kill)” value in test [1] came out at 870; in test [2] (setting [6]), 1160 ppm; in test [5] (setting [6]) it was 1740 ppm; in test [3] (day 15, ppm active, following four bacterial challenges) it was 1160 ppm. For the same molecule, the “% algal growth Sample A” value in test [4] stood at 15%. Moreover, the “% algal growth Sample B” value in test [4] worked out at 15%.
